Data taken from patent publication US10532977B2, “Small molecule inhibitors of protein tyrosine phosphatases and uses thereof” (Indiana University Research and Technology Corporation, priority 2015, dated 2020).
pIC50: −log10 of the molar value. “Also recorded” adds a separate entry of the source.

Tests used:
[1] = target: T1, Laforin (Homo sapiens, UniProt O95278); experiment: Laforin inhibition, pNPP substrate; assay type: biochemical
T1 sequence (O95278 1-331): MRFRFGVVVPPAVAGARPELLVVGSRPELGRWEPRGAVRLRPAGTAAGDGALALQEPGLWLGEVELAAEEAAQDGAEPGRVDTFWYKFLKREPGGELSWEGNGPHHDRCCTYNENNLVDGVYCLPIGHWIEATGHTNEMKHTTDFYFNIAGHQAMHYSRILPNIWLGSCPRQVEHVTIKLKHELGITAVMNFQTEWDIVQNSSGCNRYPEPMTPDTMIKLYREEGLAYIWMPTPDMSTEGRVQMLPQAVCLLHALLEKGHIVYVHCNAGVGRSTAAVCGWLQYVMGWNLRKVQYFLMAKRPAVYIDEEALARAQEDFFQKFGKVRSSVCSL

[2] = target: T2, PTPH1 (Homo sapiens, UniProt P26045); experiment: PTPH1 inhibition, pNPP substrate; assay type: biochemical; settings: pH 7
T2 sequence (P26045 1-913): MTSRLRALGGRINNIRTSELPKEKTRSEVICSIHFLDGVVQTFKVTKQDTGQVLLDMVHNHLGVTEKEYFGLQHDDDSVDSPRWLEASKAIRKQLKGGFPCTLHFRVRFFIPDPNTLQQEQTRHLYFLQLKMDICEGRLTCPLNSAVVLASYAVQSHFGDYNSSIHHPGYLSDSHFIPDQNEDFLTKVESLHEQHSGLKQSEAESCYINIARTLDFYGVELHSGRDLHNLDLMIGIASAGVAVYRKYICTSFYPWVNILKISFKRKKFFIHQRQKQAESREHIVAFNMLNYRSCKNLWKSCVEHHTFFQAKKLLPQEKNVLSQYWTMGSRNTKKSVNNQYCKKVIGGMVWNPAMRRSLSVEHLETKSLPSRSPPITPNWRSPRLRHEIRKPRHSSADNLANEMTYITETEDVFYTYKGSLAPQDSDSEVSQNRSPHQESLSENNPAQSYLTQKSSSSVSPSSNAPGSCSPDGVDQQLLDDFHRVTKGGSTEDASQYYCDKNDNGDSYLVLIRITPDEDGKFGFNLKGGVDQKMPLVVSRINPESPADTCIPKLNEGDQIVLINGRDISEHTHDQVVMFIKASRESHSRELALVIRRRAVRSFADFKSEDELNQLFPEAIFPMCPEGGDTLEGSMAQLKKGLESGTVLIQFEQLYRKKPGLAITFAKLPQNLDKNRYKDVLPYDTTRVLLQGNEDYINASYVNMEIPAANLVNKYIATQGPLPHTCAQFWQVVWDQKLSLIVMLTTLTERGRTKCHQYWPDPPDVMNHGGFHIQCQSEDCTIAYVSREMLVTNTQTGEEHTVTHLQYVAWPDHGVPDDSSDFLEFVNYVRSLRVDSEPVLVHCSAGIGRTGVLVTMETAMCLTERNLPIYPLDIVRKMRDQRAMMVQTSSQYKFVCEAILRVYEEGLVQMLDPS

[3] = system: LMWPTP; experiment: Insulin signaling in HepG2 cells; assay type: cell-based, human; settings: pretreated 1 hour, 5 nM insulin 5 minutes
Experimental: To assess the effects of L335N15 in insulin signaling pathway, HepG2 cells were pretreated with L335N15 for 1 hour and were subsequently stimulated with 5 nM insulin for 5 minutes. […] Consistent with IR activation, downstream Akt phosphorylation (Ser473) was increased. […] Accordingly, LMWPTP inhibitors such as L335N15 described herein can be used to develop agents for the treatment of type 2 diabetes and insulin resistance.

[4] = target: T3, SHP2 (Homo sapiens, UniProt Q06124); experiment: SHP2 inhibition, pNPP substrate; assay type: biochemical
T3 sequence (Q06124 224-528): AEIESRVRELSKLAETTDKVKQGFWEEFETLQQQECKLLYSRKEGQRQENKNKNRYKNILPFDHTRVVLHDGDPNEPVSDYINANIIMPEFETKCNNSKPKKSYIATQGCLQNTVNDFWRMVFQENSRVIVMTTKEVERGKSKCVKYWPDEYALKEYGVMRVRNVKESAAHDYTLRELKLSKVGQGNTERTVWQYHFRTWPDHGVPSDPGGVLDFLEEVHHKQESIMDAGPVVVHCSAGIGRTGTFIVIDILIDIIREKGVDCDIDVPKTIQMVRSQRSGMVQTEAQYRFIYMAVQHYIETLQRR

[5] = system: EGF-mediated ERK1/2 phosphorylation; experiment: EGF-mediated ERK1/2 phosphorylation, immunoblot, H1975 cells; assay type: cell-based, human; settings: compound 7 at 40 μM
Experimental: Cell proliferation and immunoblot analysis. Human non-small cell lung carcinoma cell line H1975 was cultured at 37° C. and 5% CO2 in RPMI-1640 (Corning) supplemented with 10% fetal bovine serum (HyClone). Human breast cancer cell line MDA-MB-231 was cultured in DMEM supplemented with 10% fetal bovine serum. For cell proliferation assay, 2˜3×10^3 cells were seeded in each well of 96-well plates. After treating cells with compounds for 2 days, cells were incubated with 50 µg/ml MTT (3-(4,5-Dimethylthiazol-2-yl)-2,5-diphenyltetrazolium bromide) for ˜3-4 hours. Then, the culture medium was removed, DMSO was added to dissolve the formazan crystals. Wells containing only media were used for background correction. The optical density was measured spectrophotometrically at 540 nm. For signaling analysis, cells were serum-starved overnight followed by treatment with vehicle or compounds for 3 hours, and then either left un-stimulated or stimulated with 5 μg/ml EGF or 10 nM PMA (Sigma) for indicated time. Cells were lysed and the lysates were electrophoresed on a 10% polyacrylamide gel, and then transferred to a nitrocellulose membrane, and probed with anti-phospho-ERK1/2 and anti-ERK1/2 (Cell Signaling) antibodies followed by incubation with horseradish peroxidase-conjugated secondary antibodies. […]

[6] = target: SHP2 (Homo sapiens, UniProt Q06124); experiment: Covalent adduct formation with SHP2, QTOF ESI-MS / LC-MS; settings: pH 7, cefsulodin 3 hours, PVS 10 minutes
Experimental: Characterization of cefsulodin-mediated SHP2 inhibition by Q-TOF ESI-MS, LC-MS, and HPLC. Agilent 6520 Accurate-Mass was used for the Q-TOF ESI-MS studies. Water and acetonitrile (both containing 0.1% formic acid) were used as eluent (80% water, flow 50 μL/min, run time 5 minutes). ESI positive mode was used with mass range from 300 to 1700, the gas temperature was 325° C., and vaporizer temperature was: […] The sample was adjusted to have a concentration at 0.1 mg/mL, the injection volume of each sample was 1 μL. Mass hunter software was used for protein deconvolution data analysis to calculate the molecular weight of the protein.
Agilent Technologies 6130 quadrupole LC-MS instrument was used for the LC-MS studies. A C18 reserved phase column (phenomenex, 50×4.6 mm) was used as stationary phase, water and methanol (both containing 0.1% formic acid) were used as mobile phase (gradient: 0-100% methanol, flow 0 8 ml/min, run time 15 minutes), and UV absorbance at the fixed wavelength of 254 nm and positive and negative ESI-MS data were recorded. The sample was adjusted to have a concentration at 0.1 mg/mL, and the injection volume of each sample was 0.2 μL. The retention time and corresponding ESI-MS data were used as identity of molecules.

[7] = system: Mtb-infected macrophages; experiment: Macrophage assay, growth of M. tuberculosis in IFN-γ activated J774 macrophages; assay type: cell-based, Mycobacterium tuberculosis; settings: J774A.1 macrophages
[8] = system: M. tuberculosis H37Rv; experiment: Microplate Alamar Blue assay (MABA) MIC, H37Rv; assay type: cell-based, Mycobacterium tuberculosis
[9] = target: mPTPB (Mycobacterium tuberculosis, UniProt I6WXK4); experiment: biochemical
[10] = target: mPTPA (Mycobacterium tuberculosis, UniProt P9WIA1); assay type: biochemical
[11] = target: PTP1B (Homo sapiens, UniProt P18031); experiment: PTP1B inhibition, pNPP substrate; assay type: biochemical; settings: pNPP at Km, pH 7.0, 25° C.
[12] = target: TcPTP (Homo sapiens, UniProt P17706); experiment: TcPTP inhibition, pNPP substrate; assay type: biochemical; settings: pH 7
[13] = target: LYP (Homo sapiens, UniProt Q9Y2R2); experiment: LYP inhibition, pNPP substrate; assay type: biochemical; settings: pNPP at Km, pH 7.0, 25° C.
[14] = target: PEST (Homo sapiens, UniProt Q05209); experiment: PEST inhibition, pNPP substrate; assay type: biochemical; settings: pH 7
[15] = target: HePTP (Homo sapiens, UniProt P35236); experiment: HePTP inhibition, pNPP substrate; assay type: biochemical; settings: pNPP at Km, pH 7.0, 25° C.
[16] = target: FAP1 (Homo sapiens, UniProt Q12923); experiment: FAP1 inhibition, pNPP substrate; assay type: biochemical; settings: pH 7
[17] = target: VHR (Homo sapiens, UniProt P51452); experiment: VHR inhibition, pNPP substrate; assay type: biochemical; settings: pNPP at Km, pH 7.0, 25° C.
[18] = target: T4, Ssu72 (Homo sapiens, UniProt Q9NP77); experiment: Ssu72 inhibition, pNPP substrate; assay type: biochemical; settings: pH 7
T4 construct: made in house
T4 sequence (Q9NP77 whole entry): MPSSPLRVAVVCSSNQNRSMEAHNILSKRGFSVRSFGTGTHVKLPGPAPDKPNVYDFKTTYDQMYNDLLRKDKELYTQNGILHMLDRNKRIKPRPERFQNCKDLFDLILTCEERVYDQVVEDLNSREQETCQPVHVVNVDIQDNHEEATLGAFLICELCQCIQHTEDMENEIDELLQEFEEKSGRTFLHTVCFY

Sequence of mPTPB (I6WXK4 whole entry): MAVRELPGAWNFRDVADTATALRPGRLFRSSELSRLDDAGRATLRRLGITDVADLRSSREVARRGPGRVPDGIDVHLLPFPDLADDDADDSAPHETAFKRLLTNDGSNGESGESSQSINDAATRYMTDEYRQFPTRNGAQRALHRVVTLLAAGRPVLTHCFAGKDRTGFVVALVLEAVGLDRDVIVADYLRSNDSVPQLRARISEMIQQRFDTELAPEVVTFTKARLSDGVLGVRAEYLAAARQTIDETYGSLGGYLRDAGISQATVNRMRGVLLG
Sequence of LYP (Q9Y2R2 whole entry): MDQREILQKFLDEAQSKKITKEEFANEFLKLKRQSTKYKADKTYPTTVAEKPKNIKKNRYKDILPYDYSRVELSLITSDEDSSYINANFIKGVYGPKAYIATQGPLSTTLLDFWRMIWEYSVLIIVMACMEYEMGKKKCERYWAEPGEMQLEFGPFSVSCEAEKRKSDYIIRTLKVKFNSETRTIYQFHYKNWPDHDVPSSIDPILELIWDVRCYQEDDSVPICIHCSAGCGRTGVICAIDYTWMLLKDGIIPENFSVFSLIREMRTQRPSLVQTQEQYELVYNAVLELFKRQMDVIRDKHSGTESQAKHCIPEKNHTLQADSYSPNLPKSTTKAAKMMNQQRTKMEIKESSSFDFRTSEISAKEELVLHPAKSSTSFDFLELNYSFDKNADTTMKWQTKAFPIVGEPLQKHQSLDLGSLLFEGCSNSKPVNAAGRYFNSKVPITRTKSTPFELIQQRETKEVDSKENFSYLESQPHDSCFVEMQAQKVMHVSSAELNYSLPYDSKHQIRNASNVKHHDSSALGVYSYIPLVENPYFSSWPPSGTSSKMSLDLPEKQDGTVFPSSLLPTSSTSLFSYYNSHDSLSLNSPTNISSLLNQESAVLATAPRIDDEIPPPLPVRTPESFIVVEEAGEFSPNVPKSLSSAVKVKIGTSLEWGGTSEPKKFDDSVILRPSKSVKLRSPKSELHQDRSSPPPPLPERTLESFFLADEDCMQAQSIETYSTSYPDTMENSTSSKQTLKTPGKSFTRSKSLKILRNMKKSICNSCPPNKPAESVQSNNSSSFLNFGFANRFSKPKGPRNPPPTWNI
Sequence of TcPTP (P17706 whole entry): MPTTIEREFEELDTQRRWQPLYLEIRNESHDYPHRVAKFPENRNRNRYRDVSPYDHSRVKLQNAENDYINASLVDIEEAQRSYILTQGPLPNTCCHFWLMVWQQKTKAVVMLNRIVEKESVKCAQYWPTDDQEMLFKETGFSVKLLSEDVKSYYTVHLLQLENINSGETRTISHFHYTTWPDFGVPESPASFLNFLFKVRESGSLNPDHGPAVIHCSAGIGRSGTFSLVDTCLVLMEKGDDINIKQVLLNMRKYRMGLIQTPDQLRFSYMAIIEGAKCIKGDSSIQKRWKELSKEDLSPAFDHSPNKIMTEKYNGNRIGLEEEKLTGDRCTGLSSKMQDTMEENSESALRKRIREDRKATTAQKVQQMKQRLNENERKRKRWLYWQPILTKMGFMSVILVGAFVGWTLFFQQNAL
Sequence of FAP1 (Q12923 whole entry): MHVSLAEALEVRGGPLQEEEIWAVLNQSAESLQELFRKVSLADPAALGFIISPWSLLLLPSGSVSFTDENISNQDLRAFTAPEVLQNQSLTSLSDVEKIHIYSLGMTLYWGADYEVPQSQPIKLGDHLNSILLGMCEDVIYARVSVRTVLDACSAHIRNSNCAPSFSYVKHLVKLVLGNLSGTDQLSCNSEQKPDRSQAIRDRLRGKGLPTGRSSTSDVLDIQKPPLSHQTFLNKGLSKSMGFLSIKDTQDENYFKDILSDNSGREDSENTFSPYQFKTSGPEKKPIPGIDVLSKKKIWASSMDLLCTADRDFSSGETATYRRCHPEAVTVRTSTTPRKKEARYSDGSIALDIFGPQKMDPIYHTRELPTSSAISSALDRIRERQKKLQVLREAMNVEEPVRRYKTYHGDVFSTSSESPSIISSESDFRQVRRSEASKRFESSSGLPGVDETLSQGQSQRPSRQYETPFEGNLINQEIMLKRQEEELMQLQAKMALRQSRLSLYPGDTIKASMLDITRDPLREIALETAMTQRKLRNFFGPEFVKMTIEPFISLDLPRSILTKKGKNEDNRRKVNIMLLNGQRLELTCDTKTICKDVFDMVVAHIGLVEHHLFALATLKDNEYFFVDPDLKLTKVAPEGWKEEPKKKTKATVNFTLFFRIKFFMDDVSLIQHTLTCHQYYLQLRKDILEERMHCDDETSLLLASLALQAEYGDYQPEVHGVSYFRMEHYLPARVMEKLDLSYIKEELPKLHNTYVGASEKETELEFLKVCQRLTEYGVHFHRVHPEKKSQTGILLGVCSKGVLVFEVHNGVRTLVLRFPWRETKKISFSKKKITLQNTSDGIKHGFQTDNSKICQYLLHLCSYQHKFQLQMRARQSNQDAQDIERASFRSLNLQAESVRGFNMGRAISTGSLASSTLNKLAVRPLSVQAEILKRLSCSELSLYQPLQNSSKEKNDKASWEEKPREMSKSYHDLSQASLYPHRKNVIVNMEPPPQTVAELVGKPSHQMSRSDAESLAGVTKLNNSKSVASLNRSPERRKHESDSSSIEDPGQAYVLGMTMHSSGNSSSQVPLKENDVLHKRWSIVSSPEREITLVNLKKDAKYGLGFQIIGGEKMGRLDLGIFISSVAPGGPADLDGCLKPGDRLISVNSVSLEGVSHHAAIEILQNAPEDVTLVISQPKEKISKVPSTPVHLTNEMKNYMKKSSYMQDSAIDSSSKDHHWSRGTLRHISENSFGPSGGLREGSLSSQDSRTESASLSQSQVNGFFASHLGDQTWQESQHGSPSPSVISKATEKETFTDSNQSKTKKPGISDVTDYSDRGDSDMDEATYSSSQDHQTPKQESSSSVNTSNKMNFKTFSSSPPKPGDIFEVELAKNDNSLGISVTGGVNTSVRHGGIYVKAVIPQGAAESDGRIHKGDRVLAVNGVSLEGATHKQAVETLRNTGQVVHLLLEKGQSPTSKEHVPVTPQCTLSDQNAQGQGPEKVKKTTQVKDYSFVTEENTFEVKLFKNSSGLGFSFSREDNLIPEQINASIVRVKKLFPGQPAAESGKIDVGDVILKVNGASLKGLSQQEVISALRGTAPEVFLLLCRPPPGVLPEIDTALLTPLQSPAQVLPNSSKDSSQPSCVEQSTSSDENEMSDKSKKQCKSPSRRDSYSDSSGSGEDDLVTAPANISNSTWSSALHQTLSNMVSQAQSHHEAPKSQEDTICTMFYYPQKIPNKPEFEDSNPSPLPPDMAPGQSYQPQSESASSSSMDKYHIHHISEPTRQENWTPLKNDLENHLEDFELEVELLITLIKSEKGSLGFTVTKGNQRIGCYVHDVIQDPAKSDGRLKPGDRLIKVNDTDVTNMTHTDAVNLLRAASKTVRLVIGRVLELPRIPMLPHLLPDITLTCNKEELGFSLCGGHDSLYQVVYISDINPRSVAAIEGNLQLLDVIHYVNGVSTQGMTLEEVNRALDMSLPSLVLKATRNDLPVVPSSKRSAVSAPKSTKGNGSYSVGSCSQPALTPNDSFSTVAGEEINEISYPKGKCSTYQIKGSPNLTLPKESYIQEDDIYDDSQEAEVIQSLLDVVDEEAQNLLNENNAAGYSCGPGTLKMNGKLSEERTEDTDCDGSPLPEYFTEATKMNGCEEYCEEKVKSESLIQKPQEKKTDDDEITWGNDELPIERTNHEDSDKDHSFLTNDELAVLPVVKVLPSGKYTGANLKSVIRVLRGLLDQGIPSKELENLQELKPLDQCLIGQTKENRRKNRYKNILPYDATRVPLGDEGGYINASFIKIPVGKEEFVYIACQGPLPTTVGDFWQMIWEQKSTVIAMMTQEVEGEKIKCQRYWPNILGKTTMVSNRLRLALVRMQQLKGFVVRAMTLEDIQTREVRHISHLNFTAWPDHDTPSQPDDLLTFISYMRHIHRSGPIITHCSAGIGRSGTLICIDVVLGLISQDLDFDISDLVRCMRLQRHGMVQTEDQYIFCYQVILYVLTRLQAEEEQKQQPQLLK
Sequence of VHR (P51452 whole entry): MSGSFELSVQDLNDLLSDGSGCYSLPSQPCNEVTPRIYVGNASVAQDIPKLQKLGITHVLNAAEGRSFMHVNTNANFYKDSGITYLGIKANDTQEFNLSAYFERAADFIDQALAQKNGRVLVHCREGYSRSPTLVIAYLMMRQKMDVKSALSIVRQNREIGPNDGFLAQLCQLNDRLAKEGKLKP
Sequence of PTP1B (P18031 whole entry): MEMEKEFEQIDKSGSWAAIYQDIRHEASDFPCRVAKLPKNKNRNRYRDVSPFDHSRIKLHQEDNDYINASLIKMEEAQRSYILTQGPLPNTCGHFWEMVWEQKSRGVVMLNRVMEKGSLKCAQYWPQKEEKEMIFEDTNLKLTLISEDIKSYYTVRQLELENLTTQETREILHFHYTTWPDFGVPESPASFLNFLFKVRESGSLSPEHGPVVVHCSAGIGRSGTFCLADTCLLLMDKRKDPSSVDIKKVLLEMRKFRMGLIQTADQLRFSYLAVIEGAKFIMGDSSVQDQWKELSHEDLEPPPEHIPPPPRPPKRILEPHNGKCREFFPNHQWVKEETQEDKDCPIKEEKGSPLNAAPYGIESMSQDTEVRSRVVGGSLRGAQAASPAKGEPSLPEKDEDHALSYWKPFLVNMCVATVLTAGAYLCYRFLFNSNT
Sequence of mPTPA (P9WIA1 whole entry, looked up): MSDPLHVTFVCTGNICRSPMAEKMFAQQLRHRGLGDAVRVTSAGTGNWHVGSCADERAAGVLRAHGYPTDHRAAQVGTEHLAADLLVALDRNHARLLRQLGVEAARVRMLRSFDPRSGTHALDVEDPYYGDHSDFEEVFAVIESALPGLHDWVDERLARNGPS

O=C(CS(=O)(=O)O)Nc1nc2ccc([N+](=O)[O-])cc2s1 [Compound L335N15-07]
inhibition against Laforin at 100 μM [1]: no detectable inhibition

O=C(Nc1nc2ccccc2s1)C(c1ccccc1)S(=O)(=O)O (stereo not drawn) [Compound L319N15]
pIC50 [2]: < 3.70

O=C(CS(=O)(=O)O)Nc1nc2ccccc2s1 [Compound L335N15]
Akt phosphorylation (Ser473) in HepG2 cells [3]: increased | IR Tyr1162/1163 phosphorylation in HepG2 cells ([3]; relative to DMSO): enhanced IR Tyr1162/1163 phosphorylation in a dose-dependent fashion

O=C(Nc1ccccc1)C(=O)Nc1ccc(NC(=O)C(c2ccccc2)S(=O)(=O)O)cc1 (stereo not drawn) [Compound 7, 2-oxo-2-((4-(2-oxo-2-(phenylamino)acetamido)phenyl)amino)-1-phenylethanesulfonic acid]
inhibitory activity against SHP2 at 50 μM ([4]; 50 μM): no inhibition | EGF-mediated ERK1/2 phosphorylation in H1975 cells [5]: no appreciable effect; also recorded: failed to block EGF-mediated ERK1/2 phosphorylation

C=CS(=O)(=O)c1ccccc1 [phenyl vinyl sulfone]
covalent adduct formation with SHP2 [6]: formed a covalent adduct

O=C(O)c1cc2c(C#Cc3cccc(C(F)(F)F)c3)c(-c3ccccc3)oc2cc1O [Compound L01Z08]
anti-Mtb activity in Mtb-infected macrophages [7]: potent anti-Mtb activity

O=C(Nc1nc2ccc(O[N+](=O)[O-])cc2s1)C(c1ccccc1)S(=O)(=O)O (stereo not drawn) [Compound L319N15-07]
inhibition against Laforin at 100 μM [1]: no detectable inhibition

Cc1c(Br)cc(NC(=O)CS(=O)(=O)O)cc1Br
activity in standard MIC assays [8]: devoid of activity | anti-Mtb activity in Mtb-infected macrophages [7]: markedly decrease bacterial load

O=C(Nc1ccc2nc(C(F)(F)F)[nH]c2c1)C(c1ccccc1)S(=O)(=O)O (stereo not drawn) [Compound L319M54]
pIC50 [2]: < 3.70

O=C(Nc1nnc(-c2ccccc2)s1)C(c1ccccc1)S(=O)(=O)O (stereo not drawn) [Compound L319M73-2]
specificity for Laforin over LMPTP ([1]; ratio of IC50): 8 fold

O=C(Nc1cnc2ccccc2c1)C(c1ccccc1)S(=O)(=O)O (stereo not drawn) [Compound L319M88]
pIC50 [2]: < 3.70

NC(=O)C(c1ccccc1)S(=O)(=O)O (stereo not drawn) [SPAA, α-sulfophenylacetic amide, reference compound]
pIC50 [9]: 3.70

O=C(C(c1ccccc1)S(=O)(=O)O)N1CCC(c2ccc(Cl)c(Cl)c2)CC1 (stereo not drawn) [Compound L319N47]
increase in potency against mPTPB compared to SPAA [9]: 2000 fold

O=C(Nc1ccc(N2CCOCC2)cc1)C(c1ccccc1)S(=O)(=O)O (stereo not drawn) [Compound L319M68]
mode of mPTPA inhibition [10]: competitive inhibitor | pIC50 [2]: < 3.70

O=C(Nc1ccc(-n2ccnc2)cc1)C(c1ccccc1)S(=O)(=O)O (stereo not drawn) [Compound L319M63]
pIC50 [11]: < 4.00 | pIC50 [12]: < 4.00 | pIC50 [13]: < 4.00 | pIC50 [14]: < 4.00 | pIC50 ([4]; pNPP at Km, pH 7.0, 25° C.): < 4.00 | pIC50 [15]: < 4.00 | pIC50 [16]: < 4.00 | pIC50 [17]: < 4.00 | pIC50 [18]: < 4.00
